Laboratory results published in patent publication US10822376B2, “Biologically active peptides” (Baxalta Incorporated, priority 2008, dated 2020).
≈ marks a conversion by molar mass, not a printed value. Like-named read-outs stand apart in the source and are kept apart here. Where a SMILES comes first, the peptide text is derived from it. Where no end group is shown, it is not given here. [ ]: non-standard residue; d: D form.

Tests used:
[1] = system: human FVIII inhibited plasma; assay: Defined Intrinsic Thrombin Generation Assay (DITGA, triggered by FXIa and phospholipids); format: biochemical; conditions: for Activity in the Defined Intrinsic Thrombin Generation Assay: summary
FVIII inhibited plasma = assay: Defined Dual-Pathway Thrombin Generation Assay (DDPTGA, reagent C high), FVIII inhibited plasma; format: biochemical, human; conditions: for Peak IIa FEIBA EU / Peak IIa FVIIa EU / Peak Time FEIBA EU / Peak Time FVIIa EU: FVIII inhibited plasma; for Activity in the Defined Dual-Pathway Thrombin Generation Assay: summary, FVIII inhibited or deficient plasma
FVIII deficient plasma = assay: Defined Dual-Pathway Thrombin Generation Assay (DDPTGA, reagent C high), FVIII deficient plasma; format: biochemical, human; conditions: for Peak IIa FVIII EU / Peak Time FVIII EU: FVIII deficient plasma
[2] = system: Factor VIII deficient human plasma; assay: DDPTGA (reagent B) in FVIII depleted plasma; format: biochemical; conditions: compounds at 50 μM and 80, 90 or 100 μM; also: key: '+' means stimulates; '−' means does not stimulate
Source text: Preferably, Reagent C high is used.

Acute toxicology in mice = format: in vivo, mouse; conditions: C57BL/6, mouse, in vivo, 60 minutes following administration, read-out: Max dose within toxicity category: No detected toxicity
Experimental: (§1) Toxicology studies involved monitoring of attitude changes due to toxic effects immediately after application and twice daily; monitoring of body weight; histopathology of brain, heart, kidney, liver, lung. Experiments were performed in C57131/6 mice.
(§2) C57BI/6 mice weighing 18-20 g were administered with compounds in a suitable vehicle i.v. in the tail vein or i.p. or s.c at 10 ml/kg. Quantities of the compounds administered were in the range of 0.075 to 125 mg/kg (i.v.), 15-125 mg/kg (i.p.) and 125 mg/kg (s.c.). There were four mice per group. Attitude changes due to toxic effects were monitored immediately after administration of the compound and for 60 minutes thereafter. Body weight was monitored for five days after administration. At day 5 after administration, mice were culled and autopsy performed. Brain, heart, kidney, liver, lung and spleen were biopsied.
(§3) In the above table, the maximum dose tested giving rise to no detected toxicity, some toxicity or severe toxicity over the period of 60 minutes following administration is reported. “No detected toxicity” indicates no acute toxic observations.

C57BI/6 mice = assay: Acute toxicology in mice; format: in vivo, mouse; conditions: 60 minutes following administration; for Max dose within toxicity category: Severe toxicity (one of the animals died within one hour) / Max dose within toxicity category: Some toxicity (ataxy or catalepsy, no deaths): i.v.
Experimental: as §1, §2, §3

physchem = conditions: for solubility kinetic: pH 7.4
Experimental: Aqueous solubility is measured in PBS at pH 7.4 either in an assay provided by Cerep (France, Catalog ref. 900-11a) or according to the following protocol. The aim of this procedure is to determine the solubility of a drug candidate (analyte) in a buffer, by estimating the saturation concentration of the candidate in the buffer using HPLC. A known concentration of the candidate in an organic solvent is used as a standard. A stock solution of the test compound in DMSO must be prepared as the initial step. […] DMSO stock-solutions are diluted to a final concentration of 50 μM with DMSO (100% reference-solution) and buffer (test-solution) to provide a minimum volume of 500 μL of each. Both solutions are shaken at 25° C. at 950 rpm in an Eppendorf “thermomixer comfort” for at least 60 min. The suspension is centrifuged at 22 330 g for at least two min and 100 μL of the supernatant is transferred into polypropylene-inserts placed in glass vials and closed by snap-ring caps. Alternatively the solutions can be prepared in microtiter plates with half of the previously described starting solvent volume. For the determination of the solubility all samples are analyzed by HPLC in triplicate. Injection volume is at least 10 μL. The obtained data are analyzed by “Chemstation-software” (Agilent, Waldbronn, Germany). The peaks from the analyses of the organic solutions are integrated and the arithmetic mean is reported as “AUC 1” (reference area of known amount injected at the HPLC). […] The ratio of the mean “AUC 2” and “AUC 1” is calculated and thus the percentage of the dissolved amount of compound in buffer is obtained and solubility can be reported in μM.

[3] = system: Factor V deficient human plasma; assay: DDPTGA (reagent B) in FV depleted plasma; conditions: compounds at 50 μM and 80, 90 or 100 μM
Experimental: (§4) The Defined Dual-Pathway Thrombin Generation Assay is performed as described below, using a commercial test kit (Technothrombin TGA, Technoclone GmbH, Vienna, Austria). […] USA) are incubated four minutes at 37° C. Preferably, Reagent C high is used. Thrombin generation is started by the addition of 40 μl of one of several types of human plasma (37° C.). […] By deviating the original fluorescence data the amount of generated thrombin is calculated from a standard curve constructed using a concentration range of thrombin.
(§5) The in vitro thrombin generation assay based on the cleavage of Z-GGR-AMC to release the fluorophore AMC, described in the specific description, i.e. the Defined Dual-Pathway Thrombin Generation Assay was used to characterise the effect of the compounds in several depleted human plasmas. […] 10 μl peptide dilution, 40 μl TGA substrate and 40 μl plasma were used as described in the specific description.
(§6) The plasmas used in the experiments were fresh frozen and were deficient in Factor V, Factor VII/VIIa, Factor VIII, Factor X or Factor XI (George King Bio-Medical, Inc.). Residual coagulation factor levels of deficient plasmas were specified as less than 1%.
(§7) For each depleted plasma used in the experiments, compounds were tested at two concentrations, namely 50 μM and 80, 90 or 100 μM. A negative control was used, in which no test compound was included.

[4] = system: Factor X deficient human plasma; assay: DDPTGA (reagent B) in FX depleted plasma; conditions: compounds at 50 μM and 80, 90 or 100 μM
Experimental: as §4, §5, §6, §7

[5] = system: Factor XI deficient human plasma; assay: DDPTGA (reagent B) in FXI depleted plasma; conditions: compounds at 50 μM and 80, 90 or 100 μM
Experimental: as §4, §5, §6, §7

[6] = system: Factor VII/VIIa deficient human plasma; assay: DDPTGA (reagent B) in FVII depleted plasma; conditions: compounds at 50 μM and 80, 90 or 100 μM
Experimental: as §4, §5, §6, §7

Row | Compound | Thrombin peak time given as FEIBA equivalent activity ([1]; peptide 6.25 μM) | Thrombin peak time given as FEIBA equivalent activity ([1]; peptide 12.5 μM) | Thrombin peak time given as FEIBA equivalent activity ([1]; peptide 25 μM) | Thrombin peak time given as FEIBA equivalent activity ([1]; peptide 50 μM) | Thrombin peak time given as FEIBA equivalent activity ([1]; peptide 100 μM) | Activity in the Defined Intrinsic Thrombin Generation Assay [1] | Peak IIa FEIBA EU (FVIII inhibited plasma; peptide 100 μM) | Peak IIa FVIIa EU (FVIII inhibited plasma; peptide 100 μM) | Peak Time FEIBA EU (FVIII inhibited plasma; peptide 100 μM) | Peak Time FVIIa EU (FVIII inhibited plasma; peptide 100 μM) | Activity in the Defined Dual-Pathway Thrombin Generation Assay (FVIII inhibited plasma) | Peak IIa FVIII EU (FVIII deficient plasma; peptide 100 μM) | Peak Time FVIII EU (FVIII deficient plasma; peptide 100 μM) | Stimulation of thrombin generation [2] | NOAEL at 1 h (Acute toxicology in mice; ip) | solubility (physchem; pH 7.4, Aqueous solubility) | Stimulation of thrombin generation [3] | Stimulation of thrombin generation [4] | Stimulation of thrombin generation [5] | Stimulation of thrombin generation [6] | other results
1 | CC[C@@H](C)[C@@H](NC(=O)[C@@H](CS)NC(C)=O)C(=O)N[C@H](CCSC)C(=O)N[C@H](Cc1ccccc1)C(=O)N[C@H](Cc1c[nH]c2ccccc12)C(=O)N[C@H](Cc1ccc(O)cc1)C(=O)N[C@H](CC(=O)O)C(=O)N[C@H](CCC(=O)O)C(=O)N[C@H](Cc1ccc(O)cc1)C(=O)N[C@H](CCC(=O)O)C(N)=O [Peptide B03, Ac-cimfwydeye-NH2] (Ac-[dC][dI][dM][dF][dW][dY][dD][dE][dY][dE]-NH2) | 454 mU/ml | 602 mU/ml | 738 mU/ml | 1030 mU/ml | 1394 mU/ml | possess activity | 12.3 mU/ml | 0.6 nM | BLS (BLS = below lowest standard.) | BLS (BLS = below lowest standard.) | possess activity | 5.3 mU/ml | 7.5 mU/ml | + | 15 mg/kg | 114 µM (≈ 164 µg/mL) | − | + | + | + | Peak IIa FEIBA EU (FVIII inhibited plasma; peptide 40 μM): 7.2 mU/ml; Peak IIa FVIIa EU (FVIII inhibited plasma; peptide 40 μM): 0.2 nM; Peak Time FEIBA EU (FVIII inhibited plasma; peptide 40 μM): BLS (BLS = below lowest standard.); Peak Time FVIIa EU (FVIII inhibited plasma; peptide 40 μM): BLS (BLS = below lowest standard.); Effect on both peak time and peak IIa of thrombin generation (FVIII deficient plasma; DDPTGA, comment on Table 10): positively affected; Peak IIa FVIII EU (FVIII deficient plasma; peptide 40 μM): 4.8 mU/ml; Peak Time FVIII EU (FVIII deficient plasma; peptide 40 μM): 8.7 mU/ml; NOAEL at 1 h (Acute toxicology in mice; iv): 1.5 mg/kg; Max dose within toxicity category: Severe toxicity (one of the animals died within one hour) (C57BI/6 mice): 15 mg/kg; solubility kinetic (physchem): 114 µM (≈ 164 µg/mL)
2 | Ac-WDLYFEIVW-NH2 [Peptide A05] | 390 mU/ml | 487 mU/ml | 562 mU/ml | 631 mU/ml | 816 mU/ml | possess activity | BLS (BLS = below lowest standard.) | BLS (BLS = below lowest standard.) | BLS (BLS = below lowest standard.) | BLS (BLS = below lowest standard.) |  | BLS (BLS = below lowest standard.) | BLS (BLS = below lowest standard.) | + | 15 mg/kg | 6 µM | − | + | + | + | Peak IIa FEIBA EU (FVIII inhibited plasma; peptide 50 μM): BLS (BLS = below lowest standard.); Peak IIa FVIIa EU (FVIII inhibited plasma; peptide 50 μM): BLS (BLS = below lowest standard.); Peak Time FEIBA EU (FVIII inhibited plasma; peptide 50 μM): BLS (BLS = below lowest standard.); Peak Time FVIIa EU (FVIII inhibited plasma; peptide 50 μM): BLS (BLS = below lowest standard.); Peak IIa FVIII EU (FVIII deficient plasma; peptide 50 μM): BLS (BLS = below lowest standard.); Peak Time FVIII EU (FVIII deficient plasma; peptide 50 μM): BLS (BLS = below lowest standard.); Max dose within toxicity category: Severe toxicity (one of the animals died within one hour) (C57BI/6 mice): 15 mg/kg; Max dose within toxicity category: Some toxicity (ataxy or catalepsy, no deaths) (C57BI/6 mice): 1.5 mg/kg; solubility kinetic (physchem): 6 µM
3 | Ac-WDLYFEIVWE [Peptide A06] | 571 mU/ml | 750 mU/ml | 843 mU/ml | 919 mU/ml | 879 mU/ml | possess activity | BLS (BLS = below lowest standard.) | BLS (BLS = below lowest standard.) | BLS (BLS = below lowest standard.) | 0.4 nM | possess activity | BLS (BLS = below lowest standard.) | BLS (BLS = below lowest standard.) | + | 25 mg/kg | 164 µM | + | + | + | + | Peak IIa FEIBA EU (FVIII inhibited plasma; peptide 50 μM): BLS (BLS = below lowest standard.); Peak IIa FVIIa EU (FVIII inhibited plasma; peptide 50 μM): BLS (BLS = below lowest standard.); Peak Time FEIBA EU (FVIII inhibited plasma; peptide 50 μM): BLS (BLS = below lowest standard.); Peak Time FVIIa EU (FVIII inhibited plasma; peptide 50 μM): BLS (BLS = below lowest standard.); Peak IIa FVIII EU (FVIII deficient plasma; peptide 50 μM): BLS (BLS = below lowest standard.); Peak Time FVIII EU (FVIII deficient plasma; peptide 50 μM): BLS (BLS = below lowest standard.); NOAEL at 1 h (Acute toxicology in mice; iv): 1 mg/kg; Max dose within toxicity category: Severe toxicity (one of the animals died within one hour) (C57BI/6 mice): 25 mg/kg; Max dose within toxicity category: Some toxicity (ataxy or catalepsy, no deaths) (C57BI/6 mice): 5 mg/kg; solubility (physchem; pH 7.4, Solubility in PBS): 164 µM
4 | H-ERMEFDVWDLYFEIVW-NH2 [Peptide A09] | 600 mU/ml | 742 mU/ml | 896 mU/ml | 1170 mU/ml | 1365 mU/ml | possess activity |  |  |  |  | possess activity |  |  | + |  | 63 µM | − | + | + | + | Peak IIa FEIBA EU (FVIII inhibited plasma; peptide 25 μM): BLS (BLS = below lowest standard.); Peak IIa FVIIa EU (FVIII inhibited plasma; peptide 25 μM): BLS (BLS = below lowest standard.); Peak Time FEIBA EU (FVIII inhibited plasma; peptide 25 μM): 7.9 mU/ml; Peak Time FVIIa EU (FVIII inhibited plasma; peptide 25 μM): 0.2 nM; Peak IIa FEIBA EU (FVIII inhibited plasma; peptide 50 μM): 8.6 mU/ml; Peak IIa FVIIa EU (FVIII inhibited plasma; peptide 50 μM): BLS (BLS = below lowest standard.); Peak Time FEIBA EU (FVIII inhibited plasma; peptide 50 μM): BLS (BLS = below lowest standard.); Peak Time FVIIa EU (FVIII inhibited plasma; peptide 50 μM): BLS (BLS = below lowest standard.); Peak IIa FVIII EU (FVIII deficient plasma; peptide 25 μM): BLS (BLS = below lowest standard.); Peak Time FVIII EU (FVIII deficient plasma; peptide 25 μM): 15.6 mU/ml; Peak IIa FVIII EU (FVIII deficient plasma; peptide 50 μM): BLS (BLS = below lowest standard.); Peak Time FVIII EU (FVIII deficient plasma; peptide 50 μM): 27.2 mU/ml; NOAEL at 1 h (Acute toxicology in mice; iv): 15 mg/kg; Max dose within toxicity category: No detected toxicity (C57BI/6 mice; i.p.): 15 mg/kg; solubility kinetic (physchem): 63 µM; solubility (physchem; pH 7.4, Solubility in PBS pH 7.4): ≥ 25 µM
